Test results from patent EP1674467A1, “2,5- and 2,6-disubstituted benzazole derivatives useful as protein kinase inhibitors” (4SC AG, priority 2004, dated 2006).

Molecular target: at least one kinase selected from Aurora-A, Aurora-B, EGF-R, ERBB2, PDGFR, IGF1-R, VEGF-R2, VEGF-R3, EPHB4, Tie2, and SRC
Assay: 33PanQinase Activity Assay (protein kinase assay)
Type: biochemical, human
Settings: on at least one kinase of the listed panel, or on at least two kinases from at least two different molecular mechanisms of tumor progression; 1 µM [γ-33P]-ATP, 30°C, 80 minutes
Experimental: The effect of the benzazole derivatives was tested on recombinant, human protein kinases. All protein kinases were expressed in Sf9 insect cells as human recombinant GST-fusion proteins or as His-tagged proteins by means of the baculovirus expression system. Protein kinases were purified by affinity chromatography using either GSH-agarose or Ni-NTH-agarose. The purity and identity of each was checked by SDS-PAGE/silver staining and by western blot analysis with specific antibodies.
A proprietary protein kinase assay (^33PanQinase® Activity Assay) was used for measuring the kinase activity. All kinase assays were performed in 96-well FlashPlates™ in a 50 µl reaction volume. The assay for all enzymes contained 60 mM HEPES-NaOH, pH 7.5, 3 mM MgCl2, 3 mM MnCl2, 3 µM Na-orthovanadate, 1.2 mM DTT, 50 µg/ml PEG20000 and 1 µM [γ-^33P]-ATP (approx. 5x10^5 cpm per well). The reaction cocktails were incubated at 30°C for 80 minutes. The reaction was stopped with 50 µl of 2% (v/v) H3PO4, plates were aspirated and washed two times with 200 µl of 0.9% (w/v) NaCl. Incorporation of ^33Pi was determined with a microplate scintillation counter. All assays were performed with a BeckmanCoulter/ Sagian robotic system.

Row | Structure (SMILES) | IC50
1 | COc1cc2ncnc(Nc3nc4ccc(NC(=O)Nc5ccc(Cl)c(C(F)(F)F)c5)cc4s3)c2cc1OC [Example 18, 1-(4-Chloro-3-trifluoromethylphenyl)-3-[2-(6,7-dimethoxyquinazolin-4-yl-amino)benzothiazol-6-yl]urea] | < 500 nM
2 | COc1cc2ncnc(Nc3nc4ccc(NC(=O)Nc5ccccc5)cc4s3)c2cc1OC [Example 12, 1-[2-(6,7-Dimethoxyquinazolin-4-ylamino)benzothiazol-6-yl]-3-phenylurea] | < 500 nM
3 | COc1cc2ncnc(Nc3nc4ccc(NC(=O)Nc5cccc(F)c5)cc4s3)c2cc1OC [Example 14, 1-[2-(6,7-Dimethoxyquinazolin-4-ylamino)benzothiazol-6-yl]-3-(3-fluorophenyl)urea] | < 500 nM
4 | COc1cc2ncnc(Nc3nc4ccc(NC(=O)c5cccc(OC(F)(F)F)c5)cc4s3)c2cc1OC [Example 11, N-[2-(6,7-Dimethoxyquinazolin-4-ylamino)-benzothiazol-6-yl]-3-trifluoromethoxybenzamide] | < 500 nM
5 | COc1cc2c(Nc3nc4ccc(NC(=O)Nc5ccc(Cl)c(C(F)(F)F)c5)cc4s3)ncnc2cc1OCCCN1CCN(C)CC1 [Example 19, 1-(4-Chloro-3-trifluoromethylphenyl)-3-(2-{6-methoxy-7-[3-(4-methylpiperazin-1-yl)-propoxy]quinazolin-4-ylamino}benzothiazol-6-yl)urea] | < 500 nM
6 | COc1cc2ncnc(Nc3nc4cc(NC(=O)Nc5ccc(Cl)c(C(F)(F)F)c5)ccc4s3)c2cc1OC [Example 20, 1-(4-Chloro-3-trifluoromethylphenyl)-3-[2-(6,7-dimethoxyquinazolin-4-yl-amino)benzothiazol-5-yl]urea] | < 500 nM
7 | COc1cc2ncnc(Nc3nc4ccc(NC(=O)Nc5cccc(C(F)(F)F)c5)cc4s3)c2cc1OC [Example 15, 1-[2-(6,7-Dimethoxyquinazolin-4-ylamino)benzothiazol-6-yl]-3-(3-trifluoromethylphenyl)urea] | < 500 nM
